In ChEMBL document CHEMBL1130783, “Synthesis and antiviral activity of novel isodideoxy nucleosides with exocyclic methylene” (Bioorg Med Chem Lett, 1998):
Converted amounts (≈) assume the structure as drawn.

Columns and labels:
Human alphaherpesvirus 2 = test: Compound was evaluated for the antiviral activity against HSV-2; type: functional, organism-based
[1] = tested on: Human immunodeficiency virus 1; test: Compound was evaluated for the antiviral activity against HIV-1; type: functional, organism-based
Human alphaherpesvirus 1 = test: Compound was evaluated for the antiviral activity against HSV-1; type: functional, organism-based
Human betaherpesvirus 5 = test: Compound was evaluated for the antiviral activity against HCMV; type: functional, organism-based
[2] = Compound was evaluated for its cytotoxicity.; type: functional

SMILES | EC50 (Human alphaherpesvirus 2) [µg/mL] | EC50 [1] [µg/mL] | EC50 (Human alphaherpesvirus 1) [µg/mL] | EC50 (Human betaherpesvirus 5) [µg/mL] | IC50 [2] [µg/mL]
C=C1[C@H](CO)OC[C@@H]1n1cnc2c(N)ncnc21 | > 100 | > 100 | > 100 | 33.3 (≈ 135 µM) | > 100
C=C1[C@H](CO)OC[C@@H]1n1ccc(=O)[nH]c1=O | 100 (≈ 446 µM) | 100 (≈ 446 µM) | 100 (≈ 446 µM) | 10.6 (≈ 47.3 µM) | 100 (≈ 446 µM)
C=C1[C@H](CO)OC[C@@H]1n1cnc2c(O)nc(N)nc21 | > 100 | > 100 | > 100 | > 100 | > 100
C=C1[C@H](CO)OC[C@@H]1n1cnc2c(O)ncnc21 | > 100 | > 100 | 35 (≈ 141 µM) | > 100 | > 100
C=C1[C@H](CO)OC[C@@H]1n1ccc(N)nc1=O | > 100 | > 100 | > 100 | > 100 | > 100
Nc1nc2c(ncn2COCCO)c(=O)[nH]1 [ACYCLOVIR] | 5.12 (≈ 22.7 µM) | – | 1.05 (≈ 4.68 µM) | – | 250 (≈ 1110 µM)
Nc1nc2c(ncn2COC(CO)CO)c(=O)[nH]1 [GANCICLOVIR] | – | – | – | 0.74 (≈ 2.9 µM) | > 10
Cc1cn([C@H]2C[C@H](N=[N+]=[N-])[C@@H](CO)O2)c(=O)[nH]c1=O [ZIDOVUDINE] | – | 0.00132 (≈ 0.00494 µM) | – | – | 1 (≈ 3.74 µM)
